Tests used:
[1] = test system: Cultured hippocampal neurons; assay: Calcium imaging (FURA-2) of basal cytosolic calcium in neurons exposed to Aβ-treated MVs; format: cell-based; settings: APV and CNQX applied together; FIG. 12G
Experimental: (§1) FIG. 12. Cultured hippocampal neurons were loaded with the ratiometric calcium dye FURA-2 for 1 h. During FURA-2 loading, neurons were exposed to microglia-derived microvesicles pre-incubated overnight in neuronal medium in the presence or in the absence of Abeta 1-42 (5 μM). Neurons were then wash in Kreb's ringer and resting calcium levels and calcium responsiveness to glutamate agonists (AMPA 100 μM, NMDA 100 μM) were evaluated using a single cell calcium imaging system. […] PI uptake and fragmentation of neuronal cytoskeleton (C) and staining for annexin-V, quantified in F, indicate that Aβ-treated MVs strongly affect neuronal viability. […] I Quantitative analysis of mean amplitude of calcium responses evoked by AMPA or NMDA in control neurons and neurons exposed to Aβ-treated AD MVs.
Polychrome V (TILL Photonics, Grafelfing, Germany) was used as a light source. Fura-2 fluorescence images were collected with a PCO Super VGA SensiCam (Axon Instruments, Forest City, Calif., USA) and analyzed with TILL vision software. […] The ratio values in discrete areas of interest were calculated from sequences of images to obtain temporal analyses. Calcium concentrations were expressed as F340/380 fluorescence ratios.

[2] = test system: Cultured hippocampal neurons; assay: Quantification of neuronal damage (PI uptake, annexin-V staining) after Aβ-treated MVs; format: cell-based; settings: 20 μM CNQX and 100 μM APV applied together during 1 h exposure to Aβ-treated MVs, read 24 h later
Experimental: as §1
Living neurons were exposed annexin-V-FITC, fixed with 4% paraphormaldeyde and counterstained with antibodies direct against the neuronal marker SNAP-25. Apoptotic processes, labelled by annexin-V, were quantified by the Image J software and normalized to SNAP-25 immunoreactivity, as an index of neurite density. […] PI positive nuclei were quantified and normalized to total Hoescht positive nuclei. α-tubulin staining was carried out to evaluate integrity of neuronal cytoskeleton. At least 10 different fields from three independent experiments have been analyzed.

[3] = biological target: T1, acid sphingomyelinase (A-SMase) (Homo sapiens, UniProt P17405); settings: recently identified; mechanism similar to tricyclic antidepressants; cited from earlier work
T1 sequence (P17405 47-631): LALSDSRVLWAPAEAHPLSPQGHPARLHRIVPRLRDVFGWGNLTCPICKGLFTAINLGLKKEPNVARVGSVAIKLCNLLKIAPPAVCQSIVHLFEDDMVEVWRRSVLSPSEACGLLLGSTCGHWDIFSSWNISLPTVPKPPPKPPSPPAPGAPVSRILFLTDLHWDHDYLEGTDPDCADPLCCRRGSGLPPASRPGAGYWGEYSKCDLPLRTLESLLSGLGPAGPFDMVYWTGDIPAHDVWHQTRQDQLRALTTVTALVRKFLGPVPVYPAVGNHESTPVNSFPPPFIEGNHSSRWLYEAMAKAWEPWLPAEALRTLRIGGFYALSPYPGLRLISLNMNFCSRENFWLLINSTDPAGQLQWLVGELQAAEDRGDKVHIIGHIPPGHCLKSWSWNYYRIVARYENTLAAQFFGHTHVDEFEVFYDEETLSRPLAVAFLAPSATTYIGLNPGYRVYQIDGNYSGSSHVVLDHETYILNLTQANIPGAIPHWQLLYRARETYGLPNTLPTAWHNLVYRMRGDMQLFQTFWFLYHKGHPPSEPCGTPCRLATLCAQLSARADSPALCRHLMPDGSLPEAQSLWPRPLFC

Primary mouse microglia = assay: Release of AnnexinV+ shed vesicles from ATP-stimulated microglia, measured by FACS; format: cell-based; settings: FIG. 13
Experimental: FIG. 13. FTY720 treatment. Primary mouse microglia was pre-treated, or not, with FTY720, also named fingolimod or Gylenia, currently in course of registration for the treatment of multiple sclerosis, for 30 min., then ATP was added for further 30 min. to induce the release of AnnexinV^+ shed vesicles, as measured by FACS.
Dendrites of neurons exposed to Aβ1-42-treated-MVs have a frequently fragmented or beaded appearance (FIG. 12D), display abnormal cytoplasmic calcium concentration (FIG. 12A) and reduced responsiveness to glutamate agonists (FIG. 12B). […] Similar detrimental effects are induced in cultured neurons by MVs isolated from AD CSF, pre-incubated with Aβ1-42 (FIG. 12H-I). Finally, primary mouse microglia was pre-treated, or not, with FTY720, also named fingolimod or Gylenia (FIG. 13), currently in course of registration for the treatment of multiple sclerosis, for […], then ATP was added for 30 min. to induce the release of AnnexinV^+ shed vesicles, as measured by FACS. […] Therefore, the number of shed vesicles in the CSF of treated patients represents a biomarker of therapeutic efficacy of MS or other neurological disorders therapeutic treatment.

isolectin IB-4 [4] = assay: Specificity of IB4-FITC labelling of MVs shed from N9 microglia (flow cytometry); format: binding, Baindeiraea Simplicifolia; settings: melibiose pretreatment, FACS, FIG. 5B
Description: (§2) FIG. 5. IB-4 labeling of microglia/macrophage-derived MVs is specific. A. Differential interference contrast microscopy (right panels) and fluorescent images (left panels) of primary microglia labelled in vivo with IB4-FITC.
(§3) CSF collected from naïve mice or mice exposed to different inflammatory treatments was directly stained with FITC-conjugate Isolectin B4 from Baindeiraea Simplicifolia, (IB4-FITC, SIGMA), and the phosphatydil serine ligand annexin-V in 1% BSA. Specificity of IB4 labelling was evaluated by treating IB4-FITC with 1 M melibiose (6-O-a-D-galactopyranosyl-D-glucose, Sigma M5500) for 30 min before addition to Shed MVs (FIG. 9) as previously described (Ayoub A E et al.). CSF was then diluted in PBS buffer and labelled MVs were acquired within a fixed time interval on a Canto II HTS flow cytometer (Becton Dickinson). Data were analysed using FCS 3 software (Becton Dickinson, Franklin Lakes, N.J., USA). A gate was established on size using beads of 0.5-2 μm. Whithin this gate IB4/annexin-V double positive events (number of events/μl) were evaluated as a parameter of MVs concentration in the CSF. […] IB4 and annexin-V double positive events were evaluated as a parameter of shed MVs concentration while IB4 and CD63 double positive events was evaluated as a parameter of exosome concentration. […]

isolectin IB-4 [5] = assay: Specificity of IB4-FITC labelling of primary microglia (fluorescence microscopy); format: binding, Baindeiraea Simplicifolia; settings: IB4-FITC pretreated with 1M melibiose, FIG. 5A
Description: as §2, §3

SMILES: N[C@@H](CCCP(=O)(O)O)C(=O)O [APV]
- increase in cytoplasmic calcium level induced by Aβ-treated MVs [1]: almost completely inhibited
- neuronal damage caused by Aβ-treated MVs (PI uptake, annexin-V staining) [2]: strongly prevented

SMILES: N#Cc1cc2[nH]c(=O)c(=O)[nH]c2cc1[N+](=O)[O-] [CNQX]
- increase in cytoplasmic calcium level induced by Aβ-treated MVs [1]: almost completely inhibited
- neuronal damage caused by Aβ-treated MVs (PI uptake, annexin-V staining) [2]: strongly prevented

SMILES: CCCCCCCCc1ccc(CCC(N)(CO)CO)cc1 [FTY720]
- inhibition of A-SMase [3]: inhibitor of A-SMase
- MP shedding (Primary mouse microglia): potently inhibits MP shedding
- release of AnnexinV+ shed vesicles (Primary mouse microglia; FTY720 pre-treatment 30 min, then ATP for further 30 min): completely prevented the release of shed vesicles above background levels
- release of AnnexinV+ shed vesicles (Primary mouse microglia; FTY720 pre-treatment 18 h, then ATP 30 min): completely prevented the release of shed vesicles above background levels

SMILES: OC[C@H]1O[C@H](OC[C@H]2OC(O)[C@H](O)[C@@H](O)[C@@H]2O)[C@H](O)[C@@H](O)[C@H]1O (stereo partly drawn) [melibiose, 6-O-a-D-galactopyranosyl-D-glucose]
- IB4-FITC labeling of intact MVs (isolectin IB-4 [4]): completely abolished IB4-FITC labeling
- IB4-FITC binding to the cell surface (isolectin IB-4 [5]): completely prevents its binding to the cell surface
